Laboratory results: article PMC7865627, “Small Molecule-Based Prodrug Targeting Prostate Specific Membrane Antigen for the Treatment of Prostate Cancer” (Cancers, 2021)
Entries after “also recorded” stand apart in the source; their conditions may differ. Read-outs that look alike come from different tables or passages of the source. *1 amine or outer side, *2 acyl side, *3 side chain or, on linkers, in order; H or OH if unused. Where a SMILES comes first, the peptide text is derived from it. Bridges are numbered along the chain shown (N, C = ends). Roman numbers before positions name the chains, in order. [ ]: non-standard residue; d: D form. The star is where a group is joined. Hexanoyl(6-succinimido-3yl) = O=C1CC([*:1])C(=O)N1CCCCCC(=O)[*:2]; Dolaproine = CO[C@@H]([C@@H]1CCCN1)[C@@H](C)C(=O)O; Dil = CC[C@H](C)[C@H](NC)[C@@H](CC(=O)O)OC; γGlu = O=C(O)[C@H](CCC(=O)[*:2])N[*:1]; PABC = O=C(OCc1ccc(N[*:1])cc1)[*:2]; X2 = C[C@@H](N*)[C@@H](O)c1ccccc1; X1 = O=C(C1CCC(CN[*:1])CC1)[*:2]; Cit = NC(=O)NCCC[C@H](N)C(=O)O; NMeV = CN[C@H](C(=O)O)C(C)C; CO = O=C([*:1])[*:2]; Ahx = NCCCCCC(=O)O

Key:
orthotopic PC3pip tumors = experiment: Orthotopic PC3pip survival study; format: in vivo, mouse; conditions: 3860 nmol/kg (so in the source) i.v. every 4 days, five doses, n = 5
Protocol: Surgical orthotopic tumor implantation was performed as previously reported. Tumor growth/size was monitored using Siemens Acuson S2000 (Siemens AG. Munich, Germany) ultrasound scanner. When the tumors were at the appropriate size (5 mm diameter as measured by ultrasound, approximately 2 weeks) animals were given PSMA-1-VcMMAE, or PBS every 4 days with a total of five doses. Tumors were monitored every other day by ultrasound. Each group utilized five mice.

[1] = tested on: heterotopic PC3pip tumors; experiment: Heterotopic PC3pip tumor survival study; format: in vivo
Protocol: (§1) Male athymic nude mice were implanted subcutaneously with 1 × 10^6 of PC3pip cells 100 μL of matrigel. When tumor size reached approximately 100 mm^3 (tumor volume = Length × width^2/2), mice received drugs through tail vein injection every 4 days with a total of five doses. Mice were treated every 4 days with a total of five doses. Animals were weighed and tumor size measured every other day for 90 days. Cures were defined as no tumor present at end of the 90-day study. When tumors became too large or animals were moribund they were euthanized. Five mice were used in each group.

human liver cathepsin B = molecular target: T1, human liver cathepsin B (Homo sapiens, UniProt P07858); experiment: Enzymatic cleavage by cathepsin B, HPLC analysis; format: in vitro ADME; conditions: activated human liver cathepsin B, 2 μM conjugate, 37 °C, triplicate
T1 construct: purchased Anthens Research and Technology, Anthens, AL, USA (so in the source); host or cells: human liver (tissue-derived enzyme)
Protocol: Cathepsin is a prevalent protease that PSMA internalized ligands will encounter as they enter into late endosomes/lysosomes. To investigate if PSMA-targeted drug conjugates were cleavable by cathepsin B, the two conjugates were incubated with or without cathepsin protease and chromatographed by high performance liquid chromatography (HPLC).
At different time intervals, 40 μL of the solution was taken out into tubes loaded with 1 μL of 1 mM E64 protease inhibitor. […] Studies were performed in triplicate.

heterotopic C4-2 tumors = experiment: Heterotopic C4-2 tumor study; format: in vivo, mouse; conditions: 1910 nmol/kg every 4 days, five doses, 7 animals
Source text: To show versatility of the antitumor activity of PSMA-1-VcMMAE, we also tested it in mice bearing heterotopic C4-2 tumors, which are androgen-independent prostate cancer cells endogenously expressing PSMA. […]
(§2) drugs through tail vein inject every 4 days with total of 5 injections as indicated by the red arrows.
[…] Values are mean ± SD of 5 animals. The plots stopped when animals died during the experiments since values are represent as mean ± SD of 5 animals.
(§3) (nmol/kg) Tumor Growth (nmol/kg) Therapeutic Index *
(§4) *: Therapeutic index is defined by MTD/effective dose.
PC3flu tumors. Treatment were scheduled every 4 days with a total of five doses as indicated by the […]
red arrow. […] For tumor growth curves and body weight curves, values are mean ± SD of 5 animals. The plots stopped when animals died during the experiments since values are represent as mean ± SD of 5 animals. (A) Tumor growth curves of mice treated with 955 nmol/kg of PSMA-1-VcMMAE. (B) Comparison of the potency of PSMA-1-VcMMAE to treat PC3pip (solid line) and PC3flu tumors (dashed line) at the dose of 955 nmol/kg. (☀, PC3pip treated versus PC3pip PBS, p = 0.0005; ★, PC3pip treated versus PC3flu PBS, p = 0.0242; ♣, PC3pip treated versus PC3flu treated, p = 0.0493). (C) Body weight changes of mice treated with 955 nmol/kg of PSMA-1-VcMMAE.
Figure 9. PSMA-1-VcMMAE was effective in heterotopic C4-2 tumor model. […]

[2] = tested on: metastatic PC3pip tumor (intracardiac GFP-PC3pip cells); experiment: Metastatic PC3pip survival study; format: in vivo, mouse; conditions: 1910 nmol/kg every 4 days, five doses, 90 days, n = 8
Protocol: Male athymic nude mice were injected into the left ventricle of the heart with 1 × 10^5 GFP labeled PC3pip cells to generate bone metastasis. One week later, mice received 1910 nmol/kg of PSMA-1-VcMMAE or PBS every 4 days with a total of five doses and the progression of disease was monitored by GFP imaging. Eight mice were used in each group.

[3] = tested on: heterotopic PC3flu tumors; experiment: Heterotopic PC3flu versus PC3pip tumor study; format: in vivo, mouse; conditions: 955 nmol/kg every 4 days, five doses, n = 5, p = 0.0493
Protocol: as §1, with “group. […]” for “group.”
as §2
Each group had 5 mice. Values are mean ± SD of 5 animals. The plots stopped when animals died during the experiments since values are represent as mean ± SD of 5 animals.
as §3, §4
PC3flu tumors. Treatment were scheduled every 4 days with a total of five doses as indicated by the red arrow. Each group had 5 mice. For tumor growth curves and body weight curves, values are mean ± SD of 5 animals. The plots stopped when animals died during the experiments since values are represent as mean ± SD of 5 animals. (A) Tumor growth curves of mice treated with 955 nmol/kg of PSMA-1-VcMMAE. […]

[4] = In vitro cytotoxicity assay (CCK-8), PC3pip; format: cell-based, human; conditions: human; for EC50 at 72 h: PC3pip cells
Protocol: Cells (1000/well) were seeded in 96-well culture plates the day before treatment.

[5] = 3820 nmol/kg i.v. every 4 days, five doses, n = 5

CC[C@H](C)[C@@H]([C@@H](CC(=O)N1CCC[C@H]1[C@H](OC)[C@@H](C)C(=O)N[C@H](C)[C@@H](O)c1ccccc1)OC)N(C)C(=O)[C@@H](NC(=O)[C@H](C(C)C)N(C)C(=O)OCc1ccc(NC(=O)[C@H](CCCNC(N)=O)NC(=O)[C@@H](NC(=O)CCCCCN2C(=O)CC(SC[C@H](NC(=O)[C@@H](CCC(=O)O)NC(=O)[C@@H](CCC(=O)O)NC(=O)[C@@H](CCC(=O)O)NC(=O)CCCCCNC(=O)C3CCC(CNC(=O)CC[C@H](NC(=O)N[C@@H](CCC(=O)O)C(=O)O)C(=O)O)CC3)C(=O)NCCCCCC(=O)N[C@@H](CCCCN)C(N)=O)C2=O)C(C)C)cc1)C(C)C (stereo partly shown) [PSMA-1-VcMMAE] (I: {Glu-CO-γGlu}-[X1][Ahx][dE][dE][dE]C[Ahx]K-NH2 / II: V[Cit][PABC][NMeV]V[Dil][Dolaproine]-X2; linker I:6-II:N via Hexanoyl(6-succinimido-3yl))
tumor free mice, orthotopic PC3pip, 3860 nmol/kg (orthotopic PC3pip tumors): one | tumor growth (in words), 191 nmol/kg ([1]; 191 nmol/kg i.v. every 4 days, five doses, n = 5): significant tumor inhibition | cures, 955 nmol/kg ([1]; 955 nmol/kg i.v. every 4 days, five doses, n = 5): 2/5 | histology (H&E) of major organs (in words) ([1]; 3820 nmol/kg every 4 days, five injections, day 21): no noticeable histological changes; also recorded: no histological damage in salivary gland | cure rate, 3820 nmol/kg [1, 5]: 60% | cures (tumor-free mice at 90 days), 3820 nmol/kg [1, 5]: three out of five | survival over 90-day experimental time, 3820 nmol/kg [1, 5]: all five mice survived | therapeutic index ([1]; MTD/effective dose): 20 | lowest dose to effectively inhibit tumor growth ([1]; i.v. every 4 days, five doses, tumor growth inhibited for 30 days, n = 5): 382 nmol/kg | body weight (in words) ([1]; up to 3820 nmol/kg i.v. every 4 days, five doses): No body weight loss | cleavage by cathepsin B (in words) (human liver cathepsin B): release of free MMAE | cures, C4-2 tumors (heterotopic C4-2 tumors): 2 / 7 | cures, metastatic PC3pip [2]: six out of eight | cure rate, metastatic PC3pip ([2]; started 1 week after cardiac injection): 75% | inhibition of PC3pip versus PC3flu tumor growth (in words) [3]: significantly more effective at inhibiting PSMA-positive PC3pip tumor growth than PSMA-negative PC3flu tumor growth | selectivity ratio at 72 h ([4]; PC3pip and PC3flu cells, more potent for PC3pip than PC3flu, read-out: selectivity, differential cytotoxicity ratio between PC3pip and PC3flu cells): 48 | EC50 at 72 h ([4]; 72 h, CCK-8, in the presence of 10 μM of PSMA-1, read-out: EC50, cytotoxicity to PC3pip cells + PSMA-1): 241 ± 8.6 nM | EC50 at 72 h ([4]; 72 h, CCK-8, in the presence of protease inhibitor E64 (50 μM given for the Cy5.5 conjugates), read-out: EC50, cytotoxicity to PC3pip cells + E64): 31.1 ± 2.11 nM | EC50 at 72 h ([4]; 72 h incubation, CCK-8, mean ± SD, read-out: EC50, cytotoxicity to PC3pip cells): 4.64 ± 0.83 nM
